Series [1] can be described thus: Photophysical characterization of probes and uncaged forms (relative fluorescence quantum yield, extinction coefficient, brightness). Format: physicochemical. To be noted: for Brightness: in M⁻¹·cm⁻¹ (unit assumed). As for the experimental part: (§1) The pKa of TEG-TC was determined to be 7.1±0.1 using UV-Vis spectrophotometric measurements. Under the confocal imaging conditions (pH 7.5-8.5 with cell-free assays, pH 7.4 with cells), a substantial population of the 7-hydroxycoumarin should exist in its aryloxide form. The change in coumarin fluorogenicity was assessed upon uncaging the probes from the oxobutylphenyl carbonate by measuring the relative fluorescence quantum yield (ΦFrel) values (Table 2). Coumarin 343 was used as a standard, which has an absolute fluorescence quantum yield ([…]) of 0.63 in ethanol. The ΦFrel values of TEG-TC-ONOO^− (entry 1) and DPPC-TC-ONOO^− (entry 3) were measured as 0.08 and 0.09, respectively. […] The ΦFrel values for TEG-TC (entry 2) and DPPC-TC (entry 4), which were synthesized independently, were measured as 0.66 and 0.64, respectively.
Next, the impact of caging and uncaging of the coumarin or fluorescein moieties on their fluorogenicity was assessed by measuring the relative fluorescence quantum yield (ΦFrel) values (Table 3). Coumarin 343 was used as the standard for measuring ΦFrel of the triazole-coumarin compounds (TEG-TC-H2S, TEG-TC, DPPC-TC-H2S, and DPPC-TC) whereas fluorescein for the triazole-fluorescein compounds (TEG-TF-H2O2, TEG-TF, and DPPC-TF-H2O2, and DPPC-TF). Relative to coumarin 343, whose absolute fluorescence quantum yield (ΦF) is 0.63 in ethanol, ΦFrels of the H2S probes TEG-TC-H2S (entry 1) and DPPC-TC-H2S (entry 3) were determined to be 0.07 and 0.03, respectively.
(§2) The pKa of TEG-TC was previously found to be to be 7.1±0.1 using UV-Vis spectrophotometric measurements. Under the fluorescence activation assay conditions that are employed here (Tris 50 mM, pH 7.5), a substantial population of the coumarin moiety is expected to be in its aryloxide anion form. Relative to fluorescein, whose ΦF is 0.79 in ethanol, ΦFrel values of the H2O2 probes TEG-TF-H2O2 (entry 5) and DPPC-TF-H2O2 (entry 7) were determined to be 0.04 and 0.02, respectively.

The nature of series [2]: Confocal imaging of H2O2-sensing giant vesicles. The source says:
FIGS. 14A-14B: giant vesicles (GVs) that can sense reductive (FIG. 14A) or oxidative (FIG. 14B) environments. Confocal images acquired for H2S-sensing GV at 405/475 nm (ex/em) (FIG. 14A) and H2O2 sensing GV at 490/520 nm (ex/em) (FIG. 14B). Lipid compositions of GVs: POPC, POPG, cholesterol, and DPPC-TC-H2S (48:21:30:1 molar ratio; FIG. 14A); and POPC, POPG, cholesterol, and DPPC-TF-H2O2 (48.5:21:30:0.5; FIG. 14B). To label vesicle membranes, Liss-Rhod PE dye (563/580 nm) was introduced to the lipid mixture at an insignificant molar ratio (0.1 mol %). Concentrations of RSS and ROS were set to 500 and 100 μM, respectively. Scale bar=5 μm.
The redox sensing abilities of giant vesicles (GVs) comprising DPPC-TC-H2S or DPPC-TF-H2O2 were investigated. In most biomimetic systems that rely on compartmentalization, physical membrane boundaries are comprised of phospholipids and cholesterol. These lipid self-assemblies have dimensional properties (1-30 μm in diameter) relevant to those of a mammalian plasma membrane (10-100 μm), display physical characteristics feasible for confocal fluorescence imaging, and are conveniently utilized for bottom-up construction of biomimetic protocells. […]
The vesicle size distribution was analyzed by dynamic light scattering (DLS), confirming the presence of GVs. […]

The conditions of series [3]: in ethanol; standard; cited from earlier work.
In series [4] the test system is HeLa and RAW 264.7 cells. As to the kind of experiment: Subcellular localization of non-amphiphilic probes in cells treated directly. The class given is cell-based. To be noted: 20 minutes, TEG-TC-ONOO− cells then stimulated. As for the experimental part:
Therefore, cells were treated with TEG-TC (positive control) or TEG-TC-ONOO− directly and incubated for 20 minutes. Those treated with TEG-TC-ONOO− were then stimulated via the methods described above. […] In the case of RAW 264.7 cells, the intracellular homogeneity of the signal was especially substantial.

Series [5] can be described thus: Peroxynitrite-specificity: TEG-TC-ONOO^− subjected to other redox species. To be noted: for F/F0: 60 min. The method, then: FIG. 7A: time-dependent change in relative fluorescence intensities for probe TEG-TC-ONOO^− (1 μM) and compound TEG-TC (1 μM) in Tris (50 mM, pH 7.5) upon addition of ONOO^− (600 μM). Filled square: TEG-TC, hollow square: TEG-TC+ONOO^−, filled circle: TEG-TC-ONOO^−, and hollow circle: TEG-TC-ONOO^−+ONOO^−. Error bars represent standard deviation, n=3. FIG. 7B: relative fluorescence intensity (F) with respect to the background fluorescence intensity (F0) of TEG-TC-ONOO^− in the absence or presence of redox species. Probe TEG-TC-ONOO^− (1 μM) was dissolved in Tris buffer (50 mM, pH 7.5) and subjected to RNS and ROS (600 μM): ONOO^−, NO·, H2O2, HO·, ^1O2, and O·^−. Data represent FIFO measurements for samples incubated for 60 min. Plate reader was set to excitation at 405 nm and emission at 475 nm. Error bars represent standard deviation, n=3. The peroxynitrite-specificity of the probe design was assessed by subjecting TEG-TC-ONOO^− to other redox species, including NO·, hydrogen peroxide (H2O2), singlet oxygen (^1O2), hydroxyl radicals (HO·), and O2·^− (FIG. 7B). Change in fluorescence intensity following excitation at 405 nm was measured over 60 minutes of incubation of TEG-TC-ONOO^− with each species and presented based on the signal-to-background ratio F/F0, where F and F0 are defined as the fluorescence with and without the analyte. In the absence of a redox species, F/F0 for TEG-TC-ONOO^− increased only 13% (F/F0=1.13) over 60 minutes. Treatment of TEG-TC-ONOO^− with ONOO^− gave rise to ˜570% increase in fluorescence (F/F0=6.69). […] NO·, a free radical RNS that serves as a signaling molecule in cells, had essentially no effect on fluorescence intensity (F/F0=1.03).

A short description of series [6]: Fluorescence response of TEG-TC-ONOO^− to peroxynitrite in Tris buffer (plate reader). As for the experimental part:
FIG. 7A: time-dependent change in relative fluorescence intensities for probe TEG-TC-ONOO^− (1 μM) and compound TEG-TC (1 μM) in Tris (50 mM, pH 7.5) upon addition of ONOO^− (600 μM). Filled square: TEG-TC, hollow square: TEG-TC+ONOO^−, filled circle: TEG-TC-ONOO^−, and hollow circle: TEG-TC-ONOO^−+ONOO^−. Error bars represent standard deviation, n=3. FIG. 7B: relative fluorescence intensity (F) with respect to the background fluorescence intensity (F0) of TEG-TC-ONOO^− in the absence or presence of redox species. Probe TEG-TC-ONOO^− (1 μM) was dissolved in Tris buffer (50 mM, pH 7.5) and subjected to RNS and ROS (600 μM): ONOO^−, NO·, H2O2, HO·, ^1O2, and O·^−. Data represent FIFO measurements for samples incubated for 60 min. Plate reader was set to excitation at 405 nm and emission at 475 nm. Error bars represent standard deviation, n=3. The response rate and magnitude of TEG-TC-ONOO^− against ONOO^− was evaluated by measuring the relative fluorescence intensities of samples containing TEG-TC-ONOO^− and TEG-TC (positive control) at 405 nm excitation (FIG. 7A). These samples, prepared in Tris buffer (50 mM, pH 7.5), were measured over 60 minutes of incubation with and without ONOO^−. Physiologically normal ONOO^− production rate in cells has been estimated to be in the single-digit μM range, while reaching up to 100 μM under dysregulated conditions. Guided by this information, and in agreement with the fluorescence titration conditions employed for cytosolic resorufin-based peroxynitrite sensors, it was reasoned that administering 600 μM of ONOO^− into a pH 7.5 medium would provide a steady level of effective ONOO^− within a biologically relevant concentration range of […]. […] The difference in fluorescence between the peroxynitrite-treated and untreated samples reached up to 5-fold at the end of 60 minutes. During this time period, the relative fluorescence intensity of the sample containing TEG-TC-ONOO^− became ˜85% of that of the sample containing TEG-TC (positive control). This trend of increasing fluorescence output was mirrored in the level of conversion of TEG-TC-ONOO^− into TEG-TC based on UV-Vis spectrophotometric measurements. The peroxynitrite-specificity of the probe design was assessed by subjecting TEG-TC-ONOO^− to other redox species, including NO·, hydrogen peroxide (H2O2), singlet oxygen (^1O2), hydroxyl radicals (HO·), and O2·^− (FIG. 7B). Change in fluorescence intensity following excitation at 405 nm was measured over 60 minutes of incubation of TEG-TC-ONOO^− with each species and presented based on the signal-to-background ratio F/F0, where F and F0 are defined as the fluorescence with and without the analyte. In the absence of a redox species, F/F0 for TEG-TC-ONOO^− increased only 13% (F/F0=1.13) over 60 minutes. Treatment of TEG-TC-ONOO^− with ONOO^− gave rise to ˜570% increase in fluorescence (F/F0=6.69).

The nature of series [7]: pKa by UV-Vis spectrophotometric measurements. Format: physicochemical. The method, then:
as §1, §2

With `CCCCCCCCCCCCCCCC(=O)OCC(COP(=O)([O-])OCC[N+](C)(C)Cc1cn(-c2ccc3c(c2)C(=O)OC32c3ccc(OC(=O)OCc4ccc(B5OC(C)(C)C(C)(C)O5)cc4)cc3Oc3cc(OC(=O)OCc4ccc(B5OC(C)(C)C(C)(C)O5)cc4)ccc32)nn1)OC(=O)CCCCCCCCCCCCCCC` (racemic) [DPPC-TF-H2O2], in series [1], the Emmax was found to be 519.5 nm, the Exmax worked out at 495.2 nm, the “Ext. Coeff.” value amounted to 10685 M⁻¹ cm⁻¹ and the Brightness was determined as 214. Further, in series [1] (Table 3, brightness compared to that of DPPC-TF-H2O2), the “Relative Brightness” value is reported as 1.0. Also, the “Quantum Yield (relative fluorescence quantum yield ΦFrel)” value in series [1] (standard fluorescein) was 0.02. Further, in series [2] (GVs with POPC, POPG, cholesterol, H2O2 (100 PM) over 90 min), the “GV fluorescence at the membrane” value is reported as “substantial fluorescence increase”. Further, the GV fluorescence intensities result in series [2] (equimolar other ROS (NO, ·OH, O2·^−)) is recorded as “comparable to those for the untreated GVs”.
In the case of `O=C(O)c1cc2cc3c4c(c2oc1=O)CCCN4CCC3` [Coumarin 343], the “absolute fluorescence quantum yield (ΦF)” value in series [3] is reported as 0.63.
For the compound `O=C(Oc1ccc(CCC(=O)C(F)(F)F)cc1)Oc1ccc2cc(-n3cc(COCCOCCOCCO)nn3)c(=O)oc2c1` [TEG-TC-ONOO^−], the “subcellular distribution of signal” value in series [4] was “throughout the cells, including the nucleus”. In addition, the “relative fluorescence enhancement for ONOO^− compared to the other RNS and ROS” value in series [5] is reported as about 36 fold. Further, the F/F0 in series [5] (H2O2 600 μM) came out at 1.16. The “fluorescence intensity stronger than background” value in series [5] (H2O2, 60 min) was determined as 16%. The F/F0 in series [5] (NO· 600 μM) is listed as 1.03. In series [1], the Emmax is listed as 472.0 nm, the Exmax is reported as 400.0 nm, the “Ext. Coeff.” value amounted to 4475 M⁻¹ cm⁻¹ and the Brightness was determined as 358. The “Relative Brightness” value in series [1] (Table 2, DPPC-TC-ONOO^− = 1.0) came to 1.4. Also, in series [1] (standard coumarin 343), the “Quantum Yield (relative fluorescence quantum yield ΦFrel)” value is 0.08. The same compound came in with a F/F0 in series [6] (ONOO^− 600 μM, 60 min, 405/475 nm) of 6.69. Further, the “difference in fluorescence between peroxynitrite-treated and untreated samples” value in series [6] (ONOO^− (600 PM), Tris 50 mM pH 7.5, end of 60 minutes) is “up to 5 fold”. In series [6] (ONOO^− treated, 60 minutes), the “relative fluorescence intensity as % of that of TEG-TC (positive control)” value was about 85%. This compound also returned a F/F0 in series [6] (absence of a redox species, 60 minutes, 405 nm excitation) of 1.13. In series [6] (absence of a redox species, over 60 minutes), the “increase in F/F0” value came to 13%. Besides, the “fluorescence compared to the sample untreated” value in series [6] (probe 1 μM, ONOO^− (600 PM), Tris 50 mM pH 7.5, within the first 10 minutes) is about 3 fold. The compound further came in with an increase in fluorescence in series [6] (treatment with ONOO^−, 60 min) of about 570%.
For `O=c1oc2cc(O)ccc2cc1-n1cc(COCCOCCOCCO)nn1` [TEG-TC], the “subcellular distribution of signal” value in series [4] was “throughout the cells, including the nucleus”. Besides, the pKa in series [7] is recorded as 7.1±0.1. Also, in series [1], the Emmax is recorded as 471.4 nm; the Exmax stood at 397.0 nm; the “Ext. Coeff.” value was determined as 15613 M⁻¹ cm⁻¹; the “enhanced brightness, uncaging product vs caged probe” value was determined as 28 fold. Further, in series [1], the Brightness was found to be 10305. In addition, the “Relative Brightness” value in series [1] (Table 2, DPPC-TC-ONOO^− = 1.0) is given as 41.1. Also, the “Relative Brightness” value in series [1] (Table 3, brightness compared to that of DPPC-TC-H2S) is given as 143.2. Also, the “Quantum Yield (relative fluorescence quantum yield ΦFrel)” value in series [1] (standard coumarin 343) was 0.66.

One may read the pKa as the pH at which an ionisable group is half protonated.

The values above are taken from patent US20240385182A1, “MASKED FLUOROGENIC LIPID COMPOUNDS, LIPID PARTICLES COMPRISING THE SAME, AND METHODS OF USE THEREOF” (Rutgers, The State University of New Jersey, priority 2023, published 2024).
